Experimental data from patent publication US10561658B2, “Thieno- and pyrrolopyrimidine analogues as anticancer agents and methods of use thereof” (UNIVERSITY OF MARYLAND, BALTIMORE COUNTY, priority 2015, dated 2020).
Values after ≈ are worked out from the molar mass of the structure shown.

What was measured:
Cryptococcus neoformans = assay: Antifungal growth inhibition and MIC95, C. neoformans strains; format: cell-based
Protocol: (§1) Evaluation of antimicrobial activity in vitro. Compounds were tested against the following panel of bacteria and fungi purchased from the American Type Culture Collection (ATCC). Briefly, bacteria were grown to mid-log phase, diluted with fresh medium to an optical density at 600 nm (OD600) of 0.030-0.060 and then diluted again 1:10. This suspension (195 μL) was added to wells in a 96 well microtiter plate (Sarstedt) and 5 μL of compound dissolved in DMSO was added to give a final concentration of 100-0.1 μM at 2.5% DMSO by volume. A DMSO negative control and standard antibiotic positive controls were included in each plate. All compounds were tested in triplicate for each concentration. Plates were sealed with parafilm, placed in a Ziploc bag to prevent evaporation, and incubated at 30° C. (fungi) or 37° C. (bacteria) for 16-20 hours (48 hours for C. neoformans). The OD600 values for each well were determined with a plate reader (Biotek, EL800) and the data were standardized to the DMSO control wells after subtracting the background from blank medium. Initial single concentrations were tested at 100 μM and active compounds were further tested with at least nine concentrations for a full dose response. Dose response curves were generated using GraphPad Prism 5 software and used to determine the MIC95 concentrations (minimal concentration that inhibits 95% of growth). Compounds 1, 2, 5 and 19 were screened for growth inhibition activity against a panel of bacteria and fungi at a concentration of 100 as shown in Table 2. Compound 5 was included to test the importance of the C4-Cl substituent for activity across a broader range of biological systems.
(§2) Compounds 1 and 2 were further tested against the susceptible fungal strains to determine the MIC95 values.

[1] = tested on: Escherichia coli ATCC 25922; assay: Antimicrobial growth inhibition, E. coli; format: cell-based; details: ATCC25922; Escherichia coli ATCC 25922, 100 μM
Protocol: as §1

[2] = tested on: NCI-60 human tumor cell lines; assay: NCI60 human tumor cell line screen; format: cell-based; details: NCI60, FIG. 4
Protocol: Lead compounds 1, 2 and 19 were evaluated for anti-cancer activity at nM to uM concentrations in cellular screens.
The lead halogenated pyrrolopyrimidines and thienopyrimidines of the present invention were tested in the human cell line screen which is composed of 60 different human tumor cell lines (NCI-60) representing leukemia, melanoma, lung cancer, colon cancer, brain cancer, ovary cancer, breast cancer, prostate cancer and kidney cancer. Testing specifics can be found at the National Cancer Institute at http://dtp.nci.nih.gov/branches/btb/ivelsp.html. Compounds 1, 2 and 19 were testing initially at a single dose (10^−5M) in the full cell panel. The results of the one-dose are reported as a mean graph of the percent of the growth of the treated cells. Both growth inhibition (values between 0 and 100) and lethality (values less than 0) are detectable. To evaluate the test results, a value of 100 means no growth inhibition. A value of 40 would mean 60% growth inhibition. A value of zero means no net growth over the course of the experiment. A value of −40 means 40% lethality and a value of −100 means all the cells are dead.

[3] = tested on: Staphylococcus aureus subsp. aureus (MRSA) ATCC 43300; assay: Antimicrobial growth inhibition, S. aureus (MRSA); format: cell-based; details: Staphylococcus aureus (MRSA) ATCC 43300, 100 μM
Protocol: as §1

[4] = tested on: Bacillus subtilis ATCC 6633; assay: Antimicrobial growth inhibition, B. subtilis; format: cell-based; details: ATCC6633; Bacillus subtilis ATCC 6633, 100 μM
Protocol: as §1

[5] = tested on: Candida albicans ATCC 10231; assay: Antifungal growth inhibition and MIC95, C. albicans; format: cell-based; details: ATCC10231; for inhibition at 100 µM: Candida albicans ATCC 10231, 100 μM; for MIC: Candida albicans, C. albicans ATCC 10231, minimum concentration for inhibition by 95%
Protocol: as §1, §2

MDA-MB-231 cells = assay: Cell cycle distribution (propidium iodide, flow cytometry), MDA-MB-231; format: cell-based, human
Protocol: Cell cycle distributions of MDA-MB-231 cells after 48 hours in the presence of equitoxic (IC80) doses of (a) compound 1 (15 μM) or (b) compound 2 (8 μM) analyzed by flow cytometry of fixed, propidium iodide-stained cells and compared to vehicle controls (DMSO). A minimum of 3000 cells were analyzed per cell population. Each bar represents the mean±SD across 4 independent cell samples.
Cell-cycle and apoptosis studies were conducted in MDA-MB-231 cells. Cell-cycle analysis of compound 19 at 15 μM concentration lead to arrest of 60% cells in G2/M stage. Similarly, at 1.75 μM concentration, compound 20 arrested 30% of cells in G2/M stage. […] To evaluate the possible mechanism for arrest of cell proliferation, cell-cycle distribution was measured using propidium iodide staining and flow cytometry. […] There are several possibilities that could account for this, including: (i) that cell lysis occurs rapidly following induction of apoptosis, preventing significant accumulation of annexin V-positive bodies, or (ii) that a distinct cell death pathway is triggered by compound 19.
Human metastatic breast cancer MDA-MB-231 cells were obtained from the American Type Culture Collection (ATCC) (Rockville, Md.) and maintained in Dulbecco's Modified Eagle's Medium (DMEM) containing 10% fetal bovine serum (FBS) without antibiotics at 37° C. in a humidified, CO2-controlled incubator. The cytotoxicity of compounds 1 and 2 was assessed by reduction of 3-(4, 5-dimethylthiazol-2-yl)-2,5-diphenyltetrazolium bromide (MTT). MDA-MB-231 cells were seeded in 96-well plates at 5×10^3 cells per well and treated with a range of drug concentrations. After 48 hours, cell viability was measured using the MTT Cell Proliferation Assay kit (ATCC) according to the manufacturer's instructions. Percent cell viability was plotted as a function of drug concentrations and analyzed using a sigmoidal dose response function with PRISM v3.03 software (GraphPad) to resolve drug concentrations yielding 50% cell death (IC50). The cell cycle distributions of MDA-MB-231 cells treated with compounds 1 or 2 were analyzed using propidium iodide staining and flow cytometry. 2×10^6 cells were seeded in 100 mm dishes and treated with compounds 1 or 2 at the IC80 values determined by cell viability assays or an equivalent volume of DMSO. 48 h following treatment the cells were collected, fixed, and stained with propidium iodide (Sigma Aldrich) immediately before analysis by flow cytometry.
As shown in Example 11, compounds 1 and 2 both induced apoptosis but involving a mechanism independent of cell cycle arrest. To test whether the toxicity of these agents for MDA-MB-231 cells proceeded via a similar pathway, their effects were monitored on cell cycle distributions using propidium iodide staining and flow cytometry. […]

[6] = ATCC66031, Cryptococcus neoformans ATCC 66031, 100 μM
[7] = C. neoformans VANC-R265, 100 μM
[8] = C. neoformans B4546, minimum concentration for inhibition by 95%
[9] = C. neoformans JEC20, minimum concentration for inhibition by 95%

Compound: Clc1nc(Cl)c2[nH]ccc2n1 [Compound 19, 2,4-Dichloropyrrolo[3,2-d]pyrimidine]
- inhibition at 100 µM (Cryptococcus neoformans; [6]): < 43%
- inhibition at 100 µM (Cryptococcus neoformans; C. neoformans B4546, 100 μM): < 43%
- inhibition at 100 µM (Cryptococcus neoformans; C. neoformans JEC20, 100 μM): < 43%
- inhibition at 100 µM (Cryptococcus neoformans; [7]): < 43%
- inhibition at 100 µM [1]: < 43%
- activity against non-small cell lung and CNS cancers [2]: little or no activity
- anti-cancer activity against melanoma, breast, colon and renal cancers [2]: selective activity
- inhibition at 100 µM [3]: < 43%
- inhibition at 100 µM [4]: < 43%
- inhibition at 100 µM [5]: < 43%
- cells arrested in G2/M stage (MDA-MB-231 cells; 15 μM): 60%

Compound: Clc1nc(Cl)c2scc(Br)c2n1 [Compound 2, 7-Bromo-2,4-dichlorothieno[3,2-d]pyrimidine]
- inhibition at 100 µM (Cryptococcus neoformans; [6]): 55%
- inhibition at 100 µM (Cryptococcus neoformans; C. neoformans B4546, 100 μM): 82%
- MIC (Cryptococcus neoformans; [8]): 7 µM (≈ 1.99 µg/mL)
- inhibition at 100 µM (Cryptococcus neoformans; C. neoformans JEC20, 100 μM): 91%
- MIC (Cryptococcus neoformans; [9]): 5.8 µM (≈ 1.65 µg/mL)
- inhibition at 100 µM (Cryptococcus neoformans; [7]): 67%
- inhibition at 100 µM [1]: < 43%
- activity against non-small cell lung and CNS cancers [2]: little or no activity
- anti-cancer activity against melanoma, breast, colon and renal cancers [2]: selective activity
- inhibition at 100 µM [3]: < 43%
- inhibition at 100 µM [4]: < 43%
- inhibition at 100 µM [5]: 99%
- MIC [5]: 10.7 µM (≈ 3.04 µg/mL)
- effect on cell cycle distribution (MDA-MB-231 cells; MDA-MB-231, IC80 dose, 48 h): no effect

Compound: Clc1nc(Cl)c2sccc2n1 [Compound 1, 2,4-Dichlorothieno[3,2-d]pyrimidine]
- inhibition at 100 µM (Cryptococcus neoformans; [6]): 101%
- inhibition at 100 µM (Cryptococcus neoformans; C. neoformans B4546, 100 μM): 96%
- MIC (Cryptococcus neoformans; [8]): 34.6 µM (≈ 7.1 µg/mL)
- inhibition at 100 µM (Cryptococcus neoformans; C. neoformans JEC20, 100 μM): 100%
- MIC (Cryptococcus neoformans; [9]): 16.6 µM (≈ 3.4 µg/mL)
- inhibition at 100 µM (Cryptococcus neoformans; [7]): 93%
- inhibition at 100 µM [1]: < 43%
- activity against non-small cell lung and CNS cancers [2]: little or no activity
- anti-cancer activity against melanoma, breast, colon and renal cancers [2]: selective activity
- inhibition at 100 µM [3]: < 43%
- inhibition at 100 µM [4]: 43%
- inhibition at 100 µM [5]: 99%
- MIC [5]: 23.4 µM (≈ 4.8 µg/mL)
- cells accumulated in G2/M phase (MDA-MB-231 cells; MDA-MB-231, IC80 dose, 48 h): > 70%
